This test deals with T1, recombinant human α1D receptor (Homo sapiens, UniProt P25100).
T1 construct: expressed in transfected cells; host or cells: human embryonic kidney 293 cells (HEK93 [sic]), membranes
T1 sequence (P25100 1-572): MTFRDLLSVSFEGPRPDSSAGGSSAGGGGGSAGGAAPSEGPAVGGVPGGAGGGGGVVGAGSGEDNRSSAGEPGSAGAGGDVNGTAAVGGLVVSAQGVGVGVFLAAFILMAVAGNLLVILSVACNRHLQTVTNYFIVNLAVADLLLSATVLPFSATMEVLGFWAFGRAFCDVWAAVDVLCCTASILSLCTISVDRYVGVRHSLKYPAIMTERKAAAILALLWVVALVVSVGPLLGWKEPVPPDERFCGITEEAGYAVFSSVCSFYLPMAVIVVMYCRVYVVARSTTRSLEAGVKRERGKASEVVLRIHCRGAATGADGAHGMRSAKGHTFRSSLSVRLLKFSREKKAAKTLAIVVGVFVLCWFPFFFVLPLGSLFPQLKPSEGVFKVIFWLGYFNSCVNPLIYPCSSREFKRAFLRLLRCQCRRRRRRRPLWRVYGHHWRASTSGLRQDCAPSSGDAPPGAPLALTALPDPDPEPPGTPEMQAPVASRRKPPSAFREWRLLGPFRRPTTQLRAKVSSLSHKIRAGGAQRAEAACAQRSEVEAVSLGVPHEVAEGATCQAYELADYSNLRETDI
Kind of test: Adrenergic α1D selectivity assay, [3H]-prazosin binding to membranes. Particulars: inhibition of [3H]-prazosin binding, HEK cell membranes, read-out: α1 bind pIC50 (converted). The method, boiled down: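 Competition binding on HEK293 membranes with recombinant human α1D receptor, 0.3 nM [3H]-prazosin, 50 mM HEPES/1 mM EDTA pH 7.4, 2 h at room temperature; filtration and scintillation counting. Non-specific binding defined with 10 μM BMY7378. pIC50 from four-parameter logistic fit of specific-binding inhibition.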
On to `O=C1COc2c(CCNCCN(C(=O)CCNCCc3cccc(Cl)c3F)C3CCCCC3)ccc(O)c2N1` [Example 39, 3-(3-Chloro-2-fluorophenethylamino)-N-cyclohexyl-N-(2-(2-(5-hydroxy-3-oxo-3,4-dihydro-2H-benzo[b][1,4]oxazin-8-yl)ethylamino)ethyl)propanamide bis(trifluoroacetate)], for which the IC50 was 501 nM. Turning to `Cc1cc(CCNCCC(=O)N(CCNCCc2ccc(O)c3c2OCC(=O)N3)C2CCCCC2)ccc1F` [Example 40, N-Cyclohexyl-3-(4-fluoro-3-methylphenethylamino)-N-(2-(2-(5-hydroxy-3-oxo-3,4-dihydro-2H-benzo[b][1,4]oxazin-8-yl)ethylamino)ethyl)propanamide bis(trifluoroacetate)], the IC50 was 31.6 nM. Turning to `O=C1COc2c(CCNCCN(C(=O)CCNCCc3cc(F)cc(Cl)c3)C3CCCCC3)ccc(O)c2N1` [Example 41, 3-(3-Chloro-5-fluorophenethylamino)-N-cyclohexyl-N-(2-(2-(5-hydroxy-3-oxo-3,4-dihydro-2H-benzo[b][1,4]oxazin-8-yl)ethylamino)ethyl)propanamide (trifluoroacetate)], the IC50 was 251 nM.

With `O=C1COc2c(CCNCCN(C(=O)CCNCCc3ccc(F)c(F)c3)C3CCCCC3)ccc(O)c2N1` [Example 42, N-Cyclohexyl-3-(3,4-difluorophenethylamino)-N-(2-(2-(5-hydroxy-3-oxo-3,4-dihydro-2H-benzo[b][1,4]oxazin-8-yl)ethylamino)ethyl)propanamide bis(trifluoroacetate)], the IC50 was 200 nM. As for `O=C1COc2c(CCNCCN(C(=O)CCNCCc3ccc(C(=O)O)cc3)C3CCCCC3)ccc(O)c2N1` [Example 43, 4-(2-(3-(Cyclohexyl(2-(2-(5-hydroxy-3-oxo-3,4-dihydro-2H-benzo[b][1,4]oxazin-8-yl)ethylamino)ethyl)amino)-3-oxopropylamino)ethyl)benzoic acid bis(trifluoroacetate)], the IC50 was above 10000 nM.

In the case of `CCCC[C@@H](C)N(CCNCCc1ccc(O)c2c1OCC(=O)N2)C(=O)CCNCCc1cccc(Cl)c1` [Example 44, (R)-3-(3-Chlorophenethylamino)-N-(hexan-2-yl)-N-(2-(2-(5-hydroxy-3-oxo-3,4-dihydro-2H-benzo[b][1,4]oxazin-8-yl)ethylamino)ethyl)propanamide bis(trifluoroacetate)], the IC50 was 50.1 nM. For `CCCC[C@@H](C)N(CCNCCc1ccc(O)c2c1OCC(=O)N2)C(=O)CCNCCc1ccc(Cl)cc1` [Example 45, (R)-3-(4-Chlorophenethylamino)-N-(hexan-2-yl)-N-(2-(2-(5-hydroxy-3-oxo-3,4-dihydro-2H-benzo[b][1,4]oxazin-8-yl)ethylamino)ethyl)propanamide bis(trifluoroacetate)], the IC50 is 251 nM. `CCCC[C@@H](C)N(CCNCCc1ccc(O)c2c1OCC(=O)N2)C(=O)CCNCCc1ccccc1Cl` [Example 46, (R)-3-(2-Chlorophenethylamino)-N-(hexan-2-yl)-N-(2-(2-(5-hydroxy-3-oxo-3,4-dihydro-2H-benzo[b][1,4]oxazin-8-yl)ethylamino)ethyl)propanamide bis(trifluoroacetate)]: the IC50 was 79.4 nM. As for `CCCC[C@@H](C)N(CCNCCc1ccc(O)c2c1OCC(=O)N2)C(=O)CCNCCc1ccc(F)c(C)c1` [Example 47, (R)-3-(4-Fluoro-3-methylphenethylamino)-N-(hexan-2-yl)-N-(2-(2-(5-hydroxy-3-oxo-3,4-dihydro-2H-benzo[b][1,4]oxazin-8-yl)ethylamino)ethyl)propanamide bis(trifluoroacetate)], the figure is 79.4 nM; as for `CCCC[C@@H](C)N(CCNCCc1ccc(O)c2c1OCC(=O)N2)C(=O)CCNCCc1ccc(F)c(Cl)c1` [Example 48, (R)-3-(3-Chloro-4-fluorophenethylamino)-N-(hexan-2-yl)-N-(2-(2-(5-hydroxy-3-oxo-3,4-dihydro-2H-benzo[b][1,4]oxazin-8-yl)ethylamino)ethyl)propanamide bis(trifluoroacetate)], 126 nM; as for `CCCC[C@@H](C)N(CCNCCc1ccc(O)c2c1OCC(=O)N2)C(=O)CCNCCc1ccc(Cl)s1` [Example 49, (R)-3-(2-(5-Chlorothiophen-2-yl)ethylamino)-N-(hexan-2-yl)-N-(2-(2-(5-hydroxy-3-oxo-3,4-dihydro-2H-benzo[b][1,4]oxazin-8-yl)ethylamino)ethyl)propanamide bis(trifluoroacetate)], 316 nM. For `CCCC[C@@H](C)N(CCNCCc1ccc(O)c2c1OCC(=O)N2)C(=O)CCNCCc1cc(F)cc(Cl)c1` [Example 50, (R)-3-(3-Chloro-5-fluorophenethylamino)-N-(hexan-2-yl)-N-(2-(2-(5-hydroxy-3-oxo-3,4-dihydro-2H-benzo[b][1,4]oxazin-8-yl)ethylamino)ethyl)propanamide bis(trifluoroacetate)], the IC50 is 200 nM. On to `CCCC[C@@H](C)N(CCNCCc1ccc(O)c2c1OCC(=O)N2)C(=O)CCNCCc1cc(F)cc(F)c1` [Example 51, (R)-3-(3,5-Difluorophenethylamino)-N-(hexan-2-yl)-N-(2-(2-(5-hydroxy-3-oxo-3,4-dihydro-2H-benzo[b][1,4]oxazin-8-yl)ethylamino)ethyl)propanamide bis(trifluoroacetate)], for which the IC50 was 316 nM. As for `CCCC[C@@H](C)N(CCNCCc1ccc(O)c2c1OCC(=O)N2)C(=O)CCNCCc1ccc(F)c(F)c1` [Example 52, (R)-3-(3,4-Difluorophenethylamino)-N-(hexan-2-yl)-N-(2-(2-(5-hydroxy-3-oxo-3,4-dihydro-2H-benzo[b][1,4]oxazin-8-yl)ethylamino)ethyl)propanamide bis(trifluoroacetate)], the figure is 200 nM. `CCCC[C@@H](C)N(CCNCCc1ccc(O)c2c1OCC(=O)N2)C(=O)CCNCCc1cccc(F)c1F` [Example 53, (R)-3-(2,3-Difluorophenethylamino)-N-(hexan-2-yl)-N-(2-(2-(5-hydroxy-3-oxo-3,4-dihydro-2H-benzo[b][1,4]oxazin-8-yl)ethylamino)ethyl)propanamide bis(trifluoroacetate)]: the IC50 was 200 nM. As for `CCCC[C@@H](C)N(CCNCCc1ccc(O)c2c1OCC(=O)N2)C(=O)CCNCCc1cc(F)ccc1F` [Example 54, (R)-3-(2,5-Difluorophenethylamino)-N-(hexan-2-yl)-N-(2-(2-(5-hydroxy-3-oxo-3,4-dihydro-2H-benzo[b][1,4]oxazin-8-yl)ethylamino)ethyl)propanamide bis(trifluoroacetate)], the figure is 79.4 nM. As for `CCCC[C@@H](C)N(CCNCCc1ccc(O)c2c1OCC(=O)N2)C(=O)CCNCCc1ccc(Cl)c(Cl)c1` [Example 55, (R)-3-(3,4-Dichlorophenethylamino)-N-(hexan-2-yl)-N-(2-(2-(5-hydroxy-3-oxo-3,4-dihydro-2H-benzo[b][1,4]oxazin-8-yl)ethylamino)ethyl)propanamide bis(trifluoroacetate)], the IC50 was 251 nM. As for `CCCC[C@@H](C)N(CCNCCc1ccc(O)c2c1OCC(=O)N2)C(=O)CCNCCc1cc(C)ccc1F` [Example 56, (R)-3-(2-Fluoro-5-methylphenethylamino)-N-(hexan-2-yl)-N-(2-(2-(5-hydroxy-3-oxo-3,4-dihydro-2H-benzo[b][1,4]oxazin-8-yl)ethylamino)ethyl)propanamide bis(trifluoroacetate)], the figure is 31.6 nM.

For the origin of these results see patent publication US20100056508A1, “AMINE DERIVATIVES AND THEIR USE IN BETA-2-ADRENORECEPTOR MEDIATED DISEASES” (ASTRAZENECA AB, priority 2006, published 2010).
